Molecular target: T1, S. enterica MTAN (SeMTAN) (Salmonella choleraesuis, UniProt Q57T48)
T1 sequence (Q57T48 1-232): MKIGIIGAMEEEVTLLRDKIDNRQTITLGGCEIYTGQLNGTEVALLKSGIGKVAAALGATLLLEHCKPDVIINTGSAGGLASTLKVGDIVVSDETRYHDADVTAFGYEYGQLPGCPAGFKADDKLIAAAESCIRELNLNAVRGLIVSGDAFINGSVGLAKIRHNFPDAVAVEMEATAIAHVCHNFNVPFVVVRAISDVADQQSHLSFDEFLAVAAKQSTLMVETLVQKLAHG
Experiment: slow-onset inhibition constant
Format: biochemical
Settings: for ΔG (Gibbs free energy): generated from Ki* using ΔG = RT ln Ki*; for ΔΔG: methylthio-DADMe-ImmA as reference

Compound | ΔG of binding higher when compared to MT-, DiEGT- and BuT-DADMe-ImmA (difference versus the three inhibitors) [kcal/mol] | ΔG (Gibbs free energy) [kcal/mol] | ΔΔG [kcal/mol]
Nc1ncnc2c(CN3C[C@H](CSCC[C@H](N)C(=O)O)[C@@H](O)C3)c[nH]c12 [Homocysteine-DADMe-ImmA, reference compound] | 1.5 to 2.2 | -13.9 ± 0.1 | 1.5
Nc1ncnc2c(CN3CC(O)C(CSCCCO)C3)c[nH]c12 (stereo not drawn) [3-Hydroxypropylthio-DADMe-ImmA] |  | -15.2 ± 0.2 | 0.2
Nc1ncnc2c(CN3CC(O)C(CSCCCCO)C3)c[nH]c12 (stereo not drawn) [4-Hydroxybutylthio-DADMe-ImmA] |  | -14.8 ± 0.1 | 0.6
CSC[C@H]1CN(Cc2c[nH]c3c(N)ncnc23)C[C@@H]1O [Methylthio-DADMe-ImmA, reference compound] |  | -15.4 ± 0.1 | 0
CCCCSC[C@H]1CN(Cc2c[nH]c3c(N)ncnc23)C[C@@H]1O [Butylthio-DADMe-ImmA, reference compound] |  | -16.1 ± 0.2 | -0.7
Nc1ncnc2c(CN3CC(O)C(CSCCOCCO)C3)c[nH]c12 (stereo not drawn) [2-(2-hydroxyethoxy)ethylthio-DADMe-ImmA] |  | -15.4 ± 0.1 | 0
Nc1ncnc2c(CN3CC(O)C(CSCCO)C3)c[nH]c12 (stereo not drawn) [2-Hydroxyethylthio-DADMe-ImmA] |  | -14.9 ± 0.1 | 0.5

Reference: PMC3690532 (Structure (London, England : 1993), 2013)
